# In US11911396B2, “Use of compound in preparation of drug for treating cerebral small vessel disease” (GUANGZHOU CELLPROTEK PHARMACEUTICAL CO., LTD, priority 2017, dated 2024):
# Test system: Heme Oxygenase-1 (HO-1)
# Experiment: Western blot of HO-1 in prefrontal cortex brain tissue, acute hypobaric hypoxia model
# Format: in vivo, cynomolgus monkeys
# Conditions: after hypobaric hypoxia, FIG. 4
# Text: FIG. 4. Triol enhanced the clearance of free hemoglobin in brain tissue by up-regulating CD163 and Heme Oxygenase-1 (HO-1) protein levels. A. Protein expression of hemoglobin scavenger receptor CD163 and heme oxygenase HO-1 in the brain tissue of the prefrontal cortex of cynomolgus monkeys; B. Statistics of protein relative gray scan values. The gray value was obtained by scanning with Image Lab software, and the relative value was obtained after normalizing with α-Tubulin. NN: Normobaric Normoxia group (N=3); HH: Hypobaric Hypoxia group (N=3); HH+Triol: Hypobaric Hypoxia with Triol administration group (N=3); HH+PROG: Hypobaric Hypoxia with progesterone administration group (N=3). […]
# 1) Preparation of protein samples (see the instructions of M-PER protein lysate): After the cells had been processed for the specified time, the medium was aspirated and then washed with 4° C. pre-chilled PBS (0.01M pH7.2˜7.3) for 3 times. […] 2) BCA protein quantification (see the instructions of BCA protein quantification kit): corresponding components were added to a 96-well detection plate by the ratio of quantification reagent A solution:B solution:ddH2O:protein=100:2:7.5:5, and albumin standards diluted in gradient concentration were added to draw a standard curve. […] After the reaction, the absorbance of each well at a wavelength of 562 nm was detected using a microplate reader. […]
compound,measurement,value
"C[C@@]12CCCC1C1C[C@@H](O)[C@@]3(O)C[C@@H](O)CC[C@]3(C)C1CC2 (stereo partly drawn) [Triol, 5α-androst-3β,5,6β-triol]",expression of HO-1,further up-regulated
